Consider one substance from patent US11261232B2, “TNFRSF14 / HVEM proteins and methods of use thereof” (MEMORIAL SLOAN KETTERING CANCER CENTER, priority 2015, dated 2022).

The test system of this assay is primary human FL B cells. The assay is described as follows: BCR signaling (pSyk, pERK) in anti-IgG-stimulated primary FL B cells. It counts as cell-based. The conditions noted are these: solHVEM 10 μg/ml. As to the method: FIG. 4A-E. HVEM blocks BCR signaling in a cell autonomous and BTLA dependent manner. FIG. 4A and FIG. 4B, Quantification of FACS analysis of phosphorylated BTK (pBTK) expression in BCL1 cells after stimulation with anti-IgM in the presence of solHVEM (10 μg/m1) or Ibrutinib (10 nM) without (FIG. 4A) or with (FIG. 4B) the knockdown of BTLA (shBTLA); FIG. 4C, FACS analysis of BTLA expression on purified primary human FL B cells distinguishes samples with high (BTLA^hi) and low (BTLAlo) surface BTLA expression); FIG. 4D, FACS analysis for the indicated signaling molecules in human primary FL B cells that were BTLA^hi or BTLAlo and stimulated with anti-human IgG (3 min; 10 μg/ml and H2O2 1 mM) in the presence or absence of the soluble HVEM ectodomain (solHVEM; 10 μg/ml) (right); FIG. 4E, Percentage of pSyk inhibition was calculated by comparing the ratio of MFI of pSyk+/−solHVEM and was correlated to BTLA ratio of MFI (r=0.697, p=0.03, Purified FL B cells, n=10, grade 1 and grade 2).
FIG. 11. Effect of HVEM on murine and human FL B cells. […]
Loss of HVEM and BTLA leads to BCR activation in murine lymphomas (FIGS. 2G and 3F). […] Briefly, the BCR signaling pathway in BCL1 mouse lymphoma cells was stimulated with IgM in the presence or absence of solHVEM (10 μg/ml) or the pharmacological BTK inhibitor ibrutinib (10 nM) and BTK phosphorylation was measured as an indicator of BCR pathway activation by flow cytometry. […] BTLA expression was analyzed across ten samples of purified human FL B cells by FACS, and the samples were divided into BTLA″ and BTLA^10 groups (FIG. 4C). […]
Purified IgGpos FL B cells were stimulated using FITC-conjugated goat anti-human IgG (Invitrogen, […]) in the presence of H2O2 (1 mM) with or without solHVEM (10 μg/mL). […] Phosphoprotein activation was quantified using Alexa 647-conjugated anti-pSyk (clone 17A/p-ZAP70), anti-pBLNK (clone j117-1278), or anti-pERK1/2 (clone 20A, BD Biosciences) and analyzed on B cells expressing clonal heavy and light chain gated using the anti-IgG FITC Ab and a PE-conjugated anti-kappa Ab (Southern Biotech).

In the case of “solHVEM: Leu39-Val202 soluble HVEM ectodomain polypeptide of SEQ ID NO. 8”, where the note is “BTLAhi primary FL B cells”, the “ERK inhibition in BTLAhi cells” value is listed as “inhibition” and the “SYK inhibition in BTLAhi cells” value was “inhibition”. Moreover, the “SYK and ERK inhibition in BTLAlo cells” value (BTLAlo primary FL B cells) is reported as “little effect”.
